From patent US5128363A, “Trifluoromethoxy substituted 1,3,4,9-tetrahydropyrano-[3,4-b]indole-1-acetic acids” (American Home Products Corporation, priority 1990, dated 1992)

How the values were obtained:
[1] = tested on: mice injected with a chemical irritant; experiment: Phenylbenzoquinone-induced Writhing in Mice; type: in vivo, Male Swiss albino mice; conditions: Mus musculus, po; for ED50: read-out: Phenylquinone Writhing in Mice, ED50
Experimental: A further test used to determine the utility of the compounds of the present invention is designated: Drug Effects on Phenylbenzoquinone-induced Writhing in Mice.
The objective of this test is to determine the ability of test drugs to inhibit the nociceptive (pain) response of mice injected with a chemical irritant. This test is a primary screen for both peripheral and centrally acting analgesic drugs.
Male Swiss albino mice (15-25 g). The animals are fasted for 18 hours prior to use but have free access to water.
Drug Preparation and Administration:
Drugs are dissolved or suspended according to their solubility in 0.5% Tween 80 in distilled water. They are administered by gastric gavage in a volume of 5 mL/kg. For primary screening all drugs are administered at the arbitary dosage of 10 mg/kg, p.o. to a group of 10 mice.
A modification of the method of Siegmund et al, Proc. Soc. Exp. Biol. Med., 95, 729-731 (1957) is used. Groups of 5 mice are dosed with the test compound or vehicle control. Sixty minutes later the animals are injected i.p. with 0.3 mL/20 g body weight of a 0.02% solution of phenylbenzoquinone (PBQ; 2-phenyl-1,4-benzoquinone) and placed in individual observation boxes. The number of writhing or abdominal squirming movements made by each mouse during the following 15 min. period is counted. The experiment is repeated with another group of 5 mice and the mean number of writhes per mouse for a group of 10 mice is calculated.
Drug treated and vehicle-treated control groups are compared and the percentage protection conferred by the drug is calculated: [formula] where c=mean number of writhes in the control group where t=mean number of writhes in the test drug group

[2] = tested on: rats injected intradermally in the left hind paw with Freund's complete adjuvant; experiment: Preventative Adjuvant Edema; type: in vivo, Male Sprague Dawley rats; conditions: Rattus norvegicus, po, 25 mg/kg p.o., edema volume day 3 vs day 0, read-out: Preventative Adjuvant Edema, percent inhibition
Experimental: This test is a primary screen for anti-inflammatory drugs.
Male Sprague Dawley rats (180-200 g) are used. The animals have free access to water but food is withdrawn 18 hours before testing.
Drug Preparations and Administration:
Freund's complete adjuvant is prepared by suspending 5 mg of killed and dried Mycobacterium butyricum (Difco) in 1 mL mineral oil. The test compounds are dissolved, or suspended in 0.5% Tween 80 in distilled water according to their solubility. For primary screening all drugs are administered by gastric gavage at the arbitrary dosage of 25 mg/kg, p.o. in a volume of 0.5 mL/100 g body weight to groups of 10 animals.
The method is essentially that described by Wax et al, J. Pharmacol. Exp. Ther., 192, 166-171 (1975). Groups of rats are injected intradermally in the left hind paw with 0.1 mL of Freund's complete adjuvant. […] The injected hind paw volume is measured before the injection of adjuvant and 24 hrs. after the last drug administration (day 3) by means of a plethysmometer (Buxco Electronics Inc.). […]
The mean edema volume (expressed as mL±SEM) is calculated for each group and the percentage protection conferred by the drug is calculated: [formula] where c is the mean edema volume for the vehicle-treated (0.5% Tween 80 in distilled water) controls and t is the means edema volume for the drug treated group.

[3] = tested on: rats with established adjuvant arthritis; experiment: Curative Adjuvant Arthritis; type: in vivo, Male inbred Wistar Lewis rats; conditions: for Injected Paw Edema / Non-Injected Paw Edema: change day 16 to day 25; for Body Weight Change: day 16 to day 25
From the text: An additional test used to determine the utility of the compounds of the present invention is designated: Curative Adjuvant Arthritis. The objective of this test is to evaluate the ability of drugs to decrease edema in rats with established adjuvant arthritis in order to characterize further the anti-inflammatory activity of the compounds of the present invention. Species Male inbred Wistar Lewis rats with an initial body weight of 180-200 g were used. The animals had free access to food and water throughout the test. Drug Preparations and Administration Freund's Complete Adjuvant (FCA) was prepared by suspending 5 mg killed and dried Mycobacterium butyricum (Difco) in 1 mL mineral oil. The test compounds were dissolved, or suspended with a few drops of Tween 80, in distilled water according to their solubility. […] The volume of both hind paws were measured and body weight recorded at that time. On day 16 after FCA injection the volume of both hind paws were again measured. […] Mean body weight for each group was recorded. Drug or vehicle treatment was initiated on day 16. Animals were dosed daily from day 16 to day 25 (i.e. a total of […]). The volume of both hind paws and the body weight of the animal was recorded 2 hours after the last drug administration. Vehicle treated arthritic animals acted as a vehicle-treated control group and animals treated with etodolac (3 mg/kg po) acted as a positive control group. […] The ED50, or dose which causes such an effect in 50% animals, is calculated by probit analysis.

| Compound | inhibition at 10 mg/kg ([1]; 10 mg/kg p.o., read-out: Phenylquinone Writhing in Mice, percent inhibition) [%] | ED50 [1] [mg/kg] | inhibition at 25 mg/kg [2] [%] | Injected Paw Edema ([3]; 0.3 mg/kg/day p.o.) | Non-Injected Paw Edema ([3]; 0.3 mg/kg/day p.o.) | Body Weight Change ([3]; 0.3 mg/kg/day p.o.) | anti-inflammatory effect relative to etodolac ([3]; 1 mg/kg/day p.o.) | Injected Paw Edema ([3]; 1 mg/kg/day p.o.) | Non-Injected Paw Edema ([3]; 1 mg/kg/day p.o.) | Body Weight Change ([3]; 1 mg/kg/day p.o.) | Injected Paw Edema ([3]; 3 mg/kg/day p.o.) [mL] | Non-Injected Paw Edema ([3]; 3 mg/kg/day p.o.) | Body Weight Change ([3]; 3 mg/kg/day p.o.) | health as assessed by body weight gain ([3]; highest dose, 3 mg/kg/day) | potency relative to etodolac ([3]; more potent than etodolac, curative adjuvant arthritis) |
| --- | --- | --- | --- | --- | --- | --- | --- | --- | --- | --- | --- | --- | --- | --- | --- |
| CCC1(CC(=O)O)OCCc2c1[nH]c1cc(OC(F)(F)F)ccc21 (centres unmarked) [1-Ethyl-1,3,4,9-tetrahydro-7-(trifluoromethoxy)-pyrano[3,4-b]indole-1-acetic Acid] | 47 | 24 | 88 | +0.53 mL | +1.21 mL | +2 g | intermediate between that produced by 1 and 3 mg/kg etodolac | -0.18 mL | +0.35 mL | +2 g | -0.60 | +0.11 mL | +20 g | appeared healthy | approximately 2 fold |
| CCc1cccc2c3c([nH]c12)C(CC)(CC(=O)O)OCC3 (centres unmarked) [etodolac, reference compound] |  | 168 | 68 | +1.12 mL | +1.86 mL | -3 g |  | +0.40 mL | +1.14 mL | -9 g | -0.28 | +0.51 mL | +10 g |  |  |
